In patent US12653191B2, “Active compound combinations” (Bayer Aktiengesellschaft, priority 2020, dated 2026):
Where two headings read alike, the source gives them in different places.

Assays:
Format in all cases: cell-based
Parastagonospora nodorum = assay: in vitro-Test with fungal microorganisms, Method B (tables H5-H8); details: Parastagonospora nodorum, read-out: Efficacy
How it was run: (§1)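 Cpd in MeOH + alkylaryl-polyglycol-ether, solvent evaporated; liquid medium + fungal spores/mycelium added; OD600 read; 3–7 d, 20° C., 85% RH; growth inhibition by photometry, % efficacy vs untreated ctrl.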

Botrytis cinerea [1] = assay: in vitro-Test with fungal microorganisms, Method B (tables B15-B18); details: Botrytis cinerea, read-out: Efficacy %
How it was run: as §1

Cercospora beticola [2] = assay: in vitro-Test with fungal microorganisms, Method B (tables C11-C20); details: Cercospora beticola, single compound, read-out: Efficacy %
How it was run: as §1

[3] = test system: Colletotrichum lindemuthianum; assay: in vitro-Test with fungal microorganisms, Method A (tables D1-D8); details: Colletotrichum lindemuthianum, read-out: Efficacy %
How it was run: (§2)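 First, compound in methanol with alkylaryl-polyglycol-ether was dried down in the plate. Next, spore or mycelium suspension in potato dextrose broth was added and extinction read at 620 nm. After 3-5 days at 20° C, 85% RH, reading was repeated and efficacy scored against untreated wells.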

[4] = test system: Ustilago segetum var. avenae; assay: in vitro-Test with fungal microorganisms, Method B (tables I6-I11); details: read-out: Efficacy %
How it was run: as §1

Botrytis cinerea [5] = assay: in vitro-Test with fungal microorganisms, Method A (tables B1-B14); details: Botrytis cinerea, alone, 0.4 ppm; read-out: Efficacy %
How it was run: as §2

Alternaria alternata = assay: in vitro-Test with fungal microorganisms, Method B (tables A13-A22); details: Alternaria alternata, single compound, 10 ppm; read-out: Efficacy
How it was run: as §1

Cordana musae [6] = assay: in vitro-Test with fungal microorganisms, Method A (tables E1-E8); details: Neocordana musae, read-out: Efficacy %
How it was run: as §2

Diaporthe citri [7] = assay: in vitro-Test with fungal microorganisms, Method A (tables F1-F11)
How it was run: as §2

Diaporthe citri [8] = assay: in vitro-Test with fungal microorganisms, Method B (tables F12-F15)
How it was run: as §1

Cercospora beticola [9] = assay: in vitro-Test with fungal microorganisms, Method A (tables C1-C10); details: Cercospora beticola, read-out: Efficacy %
How it was run: as §2

Fusarium culmorum [10] = assay: in vitro-Test with fungal microorganisms, Method B (tables G5-G15); details: Fusarium culmorum, single active compound, read-out: Efficacy
How it was run: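 Efficacy scale: 0% means growth equal to the untreated control, 100% means none detected. Compounds are dried from methanol with emulsifier before adding inoculated growth medium; incubation at 20° C., 85% relative humidity for 3 to 7 days precedes photometric inhibition readout.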

Colletotrichum coccodes = assay: in vitro-Test with fungal microorganisms, Method B (tables J1-J11); details: Colletotrichum coccodes, read-out: Efficacy %
How it was run: as §1

Fusarium culmorum [11] = assay: in vitro-Test with fungal microorganisms, Method A (tables G1-G4); details: alone
How it was run: as §2

Cordana musae [12] = assay: in vitro-Test with fungal microorganisms, Method B (tables E9-E16); details: Neocordana musae, single active, read-out: Efficacy
How it was run: as §1

Fc1ccc(Oc2ccnc3cc(Cl)cc(Cl)c23)cc1 [(13.005) quinoxyfen, quinoxyfen]
inhibition of growth at 0.08 ppm (Parastagonospora nodorum; 0.08 ppm): 5%
inhibition of growth at 0.4 ppm (Parastagonospora nodorum; 0.4 ppm): 4%
inhibition of growth at 2 ppm (Parastagonospora nodorum; 2 ppm): 1%
inhibition of growth at 10 ppm (Parastagonospora nodorum; 10 ppm): 33%
inhibition of growth at 0.08 ppm (Botrytis cinerea [1]; 0.08 ppm alone): 0%
inhibition of growth at 0.4 ppm (Botrytis cinerea [1]; 0.4 ppm alone): 0%
inhibition of growth at 0.4 ppm (Cercospora beticola [2]; 0.4 ppm): 0%
inhibition of growth at 2 ppm (Cercospora beticola [2]; 2 ppm): 0%
inhibition of growth at 10 ppm (Cercospora beticola [2]; 10 ppm): 4%
inhibition of growth at 0.08 ppm ([3]; mixing partner alone, 0.08 ppm): 0%
inhibition of growth at 0.4 ppm ([3]; mixing partner alone, 0.4 ppm): 0%
inhibition of growth at 2 ppm ([3]; mixing partner alone, 2.0 ppm): 0%
inhibition of growth at 0.08 ppm ([3]; single active at 0.08 ppm): 1%
inhibition of growth at 0.4 ppm ([3]; single active at 0.4 ppm): 0%
inhibition of growth at 2 ppm ([3]; single active at 2.0 ppm): 0%
inhibition of growth at 10 ppm ([3]; single active at 10.0 ppm): 24%
inhibition of growth at 0.08 ppm ([4]; 0.08 ppm): 0%
inhibition of growth at 2 ppm ([4]; 2 ppm): 0%
inhibition of growth at 10 ppm ([4]; 10 ppm): 9%
inhibition of growth at 0.4 ppm (Botrytis cinerea [5]): 0%
inhibition of growth at 10 ppm (Alternaria alternata): 30%
inhibition of growth at 0.4 ppm (Cordana musae [6]; mixing partner alone): 0%
inhibition of growth at 2 ppm (Cordana musae [6]; mixing partner alone): 0%
inhibition of growth at 10 ppm (Cordana musae [6]; mixing partner alone): 0%
inhibition of growth at 0.08 ppm (Cordana musae [6]; single substance, 0.08 ppm): 0%
inhibition of growth at 0.4 ppm (Cordana musae [6]; single substance): 0%
inhibition of growth at 2 ppm (Cordana musae [6]; single substance): 0%
inhibition of growth at 10 ppm (Cordana musae [6]; single substance): 34%
inhibition of growth at 0.08 ppm (Diaporthe citri [7]; Diaporthe citri, Table F10, 0.08 ppm alone, read-out: Efficacy): 52%
inhibition of growth at 0.4 ppm (Diaporthe citri [7]; Diaporthe citri, Table F10, 0.4 ppm alone, read-out: Efficacy): 6%
inhibition of growth at 2 ppm (Diaporthe citri [7]; Diaporthe citri, Table F10, 2.0 ppm alone, read-out: Efficacy): 10%
inhibition of growth at 10 ppm (Diaporthe citri [7]; Diaporthe citri, Table F10, 10.0 ppm alone, read-out: Efficacy): 20%
inhibition of growth at 0.4 ppm (Diaporthe citri [7]; Diaporthe citri, applied alone, 0.4 ppm, read-out: Efficacy): 15%
inhibition of growth at 10 ppm (Diaporthe citri [7]; Diaporthe citri, applied alone, 10.0 ppm, read-out: Efficacy): 41%
Efficacy (Diaporthe citri [7]; applied alone, 2.0 ppm): 0%
Efficacy (Diaporthe citri [8]; Table F13, 0.08 ppm alone): 0%
Efficacy (Diaporthe citri [8]; Table F13, 2 ppm alone): 24%
Efficacy (Diaporthe citri [8]; Table F15, 0.4 ppm alone): 0%
Efficacy (Diaporthe citri [8]; Table F15, 2 ppm alone): 13%
Efficacy (Diaporthe citri [8]; Table F15, 10 ppm alone): 76%
inhibition of growth at 0.08 ppm (Cercospora beticola [9]; 0.08 ppm alone): 10%
inhibition of growth at 0.4 ppm (Cercospora beticola [9]; 0.4 ppm alone): 0%
inhibition of growth at 2 ppm (Cercospora beticola [9]; 2.0 ppm alone): 4%
inhibition of growth at 10 ppm (Cercospora beticola [9]; 10.0 ppm alone): 34%
inhibition of growth at 0.08 ppm (Fusarium culmorum [10]; 0.08 ppm): 0%
inhibition of growth at 0.4 ppm (Fusarium culmorum [10]; 0.4 ppm): 2%
inhibition of growth at 10 ppm (Fusarium culmorum [10]; 10 ppm): 8%
inhibition of growth at 0.08 ppm (Colletotrichum coccodes; 0.08 ppm): 0%
inhibition of growth at 0.4 ppm (Colletotrichum coccodes; 0.4 ppm): 0%
inhibition of growth at 2 ppm (Colletotrichum coccodes; 2 ppm): 48%
inhibition of growth at 0.08 ppm (Colletotrichum coccodes; single active compound at 0.08 ppm): 0%
inhibition of growth at 0.4 ppm (Colletotrichum coccodes; single active compound at 0.4 ppm): 0%
inhibition of growth at 2 ppm (Colletotrichum coccodes; single active compound at 2 ppm): 18%
inhibition of growth at 10 ppm (Colletotrichum coccodes; single active compound at 10 ppm): 28%
Efficacy (Fusarium culmorum [11]; 10.0 ppm): 0%
inhibition of growth at 0.08 ppm (Fusarium culmorum [11]; Fusarium culmorum, 0.08 ppm, read-out: Efficacy): 0%
inhibition of growth at 10 ppm (Fusarium culmorum [11]; Fusarium culmorum, 10.0 ppm, read-out: Efficacy): 0%
inhibition of growth at 0.08 ppm (Cordana musae [12]; 0.08 ppm): 0%
inhibition of growth at 0.4 ppm (Cordana musae [12]; 0.4 ppm): 0%
inhibition of growth at 10 ppm (Cordana musae [12]; 10 ppm): 2%
